Measured values: patent US8574563B2 (Bristol-Myers Squibb Company, priority 2006, dated 2013)

Tested on: HCV 1b-377-neo replicon cells
Test: HCV replicon assay, HCV 1b-377-neo replicon cells (1b FRET)
Format: cell-based, Hepatitis C virus genotype 1b
Details: Hepatitis C virus, HCV 1b-377-neo replicon cells; HCV 1b genotype; read-out: EC50 range against HCV 1b (Table 2, Range)
Procedure, shortened: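 Compounds were tested in genotype 1b subgenomic replicon cells carrying a neomycin marker, alongside a matched replicon line with an NS5A Y2065H substitution that confers resistance to a reference NS5A inhibitor.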

## COC(=O)N[C@@H](Cc1cncn1C)C(=O)N1CCC[C@H]1c1ncc(-c2ccc(-c3ccc(-c4cnc([C@@H]5CCCN5C(=O)[C@@H](NC(=O)OC)C(C)C)[nH]4)cc3)cc2)[nH]1 [cj-46, methyl ((1S)-1-(((2S)-2-(5-(4′-(2-((2S)-1-((2S)-2-((methoxycarbonyl)amino)-3-(1-methyl-1H-imidazol-5-yl)propanoyl)-2-pyrrolidinyl)-1H-imidazol-5-yl)-4-biphenylyl)-1H-imidazol-2-yl)-1-pyrrolidinyl)carbonyl)-2-methylpropyl)carbamate]
  EC50: 0.001 to 0.999 nM

## COC(=O)N[C@@H](Cc1cncn1C)C(=O)N1CCC[C@H]1c1ncc(-c2ccc(-c3ccc(-c4cnc([C@@H]5CCCN5C(=O)[C@@H](NC(=O)OC)[C@@H](C)OC)[nH]4)cc3)cc2)[nH]1 [cj-47, methyl ((1S)-2-((2S)-2-(5-(4′-(2-((2S)-1-((2S,3R)-3-methoxy-2-((methoxycarbonyl)amino)butanoyl)-2-pyrrolidinyl)-1H-imidazol-5-yl)-4-biphenylyl)-1H-imidazol-2-yl)-1-pyrrolidinyl)-1-((1-methyl-1H-imidazol-5-yl)methyl)-2-oxoethyl)carbamate]
  EC50: 1 to 99 nM

## COC(=O)N[C@@H](C)C(=O)N1CCC[C@H]1c1ncc(-c2ccc(-c3ccc(-c4cnc([C@@H]5CCCN5C(=O)[C@@H]5CC(=O)N5)[nH]4)cc3)cc2)[nH]1 [cj-48]
  EC50: 100 to 999 nM

## COC(=O)N[C@@H](C)C(=O)N1CCC[C@H]1c1ncc(-c2ccc(-c3ccc(-c4cnc([C@@H]5CCCN5C(=O)[C@@H]5CCN5C(=O)OC)[nH]4)cc3)cc2)[nH]1 [cj-49, methyl (2S)-2-(((2S)-2-(5-(4′-(2-((2S)-1-(N-(methoxycarbonyl)-L-alanyl)-2-pyrrolidinyl)-1H-imidazol-5-yl)-4-biphenylyl)-1H-imidazol-2-yl)-1-pyrrolidinyl)carbonyl)-1-azetidinecarboxylate]
  EC50: 1 to 99 nM

## CCN(CC)[C@@H](C(=O)N1CCC[C@H]1c1ncc(-c2ccc(-c3ccc(-c4cnc([C@@H]5CCCN5C(=O)[C@@H]5CCN5C(=O)OC)[nH]4)cc3)cc2)[nH]1)c1ccccc1 [cj-50, methyl (2S)-2-(((2S)-2-(5-(4′-(2-((2S)-1-((2R)-2-(diethylamino)-2-phenylacetyl)-2-pyrrolidinyl)-1H-imidazol-5-yl)-4-biphenylyl)-1H-imidazol-2-yl)-1-pyrrolidinyl)carbonyl)-1-azetidinecarboxylate]
  EC50: 0.001 to 0.999 nM

## CCN(CC)[C@@H](C(=O)N1CCC[C@H]1c1ncc(-c2ccc(-c3ccc(-c4cnc([C@@H]5CCCN5C(=O)C[C@H](C)NC(=O)OC)[nH]4)cc3)cc2)[nH]1)c1ccccc1 [cj-51, methyl ((1S)-3-((2S)-2-(5-(4′-(2-((2S)-1-((2R)-2-(diethylamino)-2-phenylacetyl)-2-pyrrolidinyl)-1H-imidazol-5-yl)-4-biphenylyl)-1H-imidazol-2-yl)-1-pyrrolidinyl)-1-methyl-3-oxopropyl)carbamate]
  EC50: 0.001 to 0.999 nM

## CCN(CC)[C@@H](C(=O)N1CCC[C@H]1c1ncc(-c2ccc(-c3ccc(-c4cnc([C@@H]5CCCN5C(=O)C[C@@H](NC(=O)OC)C(C)C)[nH]4)cc3)cc2)[nH]1)c1ccccc1 [cj-52, methyl ((1R)-3-((2S)-2-(5-(4′-(2-((2S)-1-((2R)-2-(diethylamino)-2-phenylacetyl)-2-pyrrolidinyl)-1H-imidazol-5-yl)-4-biphenylyl)-1H-imidazol-2-yl)-1-pyrrolidinyl)-1-isopropyl-3-oxopropyl)carbamate]
  EC50: 0.001 to 0.999 nM

## CCN(CC)[C@@H](C(=O)N1CCC[C@H]1c1ncc(-c2ccc(-c3ccc(-c4cnc([C@@H]5CCCN5C(=O)C[C@H](Cc5ccccc5)NC(=O)OC)[nH]4)cc3)cc2)[nH]1)c1ccccc1 [cj-53, methyl ((1S)-1-benzyl-3-((2S)-2-(5-(4′-(2-((2S)-1-((2R)-2-(diethylamino)-2-phenylacetyl)-2-pyrrolidinyl)-1H-imidazol-5-yl)-4-biphenylyl)-1H-imidazol-2-yl)-1-pyrrolidinyl)-3-oxopropyl)carbamate]
  EC50: 0.001 to 0.999 nM

## CCN(CC)[C@@H](C(=O)N1CCC[C@H]1c1ncc(-c2ccc(-c3ccc(-c4cnc([C@@H]5CCCN5C(=O)C[C@H](Cc5cccs5)NC(=O)OC)[nH]4)cc3)cc2)[nH]1)c1ccccc1 [cj-54, methyl ((1R)-3-((2S)-2-(5-(4′-(2-((2S)-1-((2R)-2-(diethylamino)-2-phenylacetyl)-2-pyrrolidinyl)-1H-imidazol-5-yl)-4-biphenylyl)-1H-imidazol-2-yl)-1-pyrrolidinyl)-3-oxo-1-(2-thienylmethyl)propyl)carbamate]
  EC50: 0.001 to 0.999 nM

## CCN(CC)[C@@H](C(=O)N1CCC[C@H]1c1ncc(-c2ccc(-c3ccc(-c4cnc([C@@H]5CCCN5C(=O)C[C@@H](Cc5ccsc5)NC(=O)OC)[nH]4)cc3)cc2)[nH]1)c1ccccc1 [cj-55, methyl ((1R)-3-((2S)-2-(5-(4′-(2-((2S)-1-((2R)-2-(diethylamino)-2-phenylacetyl)-2-pyrrolidinyl)-1H-imidazol-5-yl)-4-biphenylyl)-1H-imidazol-2-yl)-1-pyrrolidinyl)-3-oxo-1-(3-thienylmethyl)propyl)carbamate]
  EC50: 0.001 to 0.999 nM

## CCN(CC)[C@@H](C(=O)N1CCC[C@H]1c1ncc(-c2ccc(-c3ccc(-c4cnc([C@@H]5CCCN5C(=O)C[C@@H](Cc5cccs5)NC(=O)OC)[nH]4)cc3)cc2)[nH]1)c1ccccc1 [cj-56, methyl ((1S)-3-((2S)-2-(5-(4′-(2-((2S)-1-((2R)-2-(diethylamino)-2-phenylacetyl)-2-pyrrolidinyl)-1H-imidazol-5-yl)-4-biphenylyl)-1H-imidazol-2-yl)-1-pyrrolidinyl)-3-oxo-1-(2-thienylmethyl)propyl)carbamate]
  EC50: 0.001 to 0.999 nM

## CCN(CC)[C@@H](C(=O)N1CCC[C@H]1c1ncc(-c2ccc(-c3ccc(-c4cnc([C@@H]5CCCN5C(=O)[C@@H]5CC[C@H](NC(=O)OC)C5)[nH]4)cc3)cc2)[nH]1)c1ccccc1 [cj-57, methyl ((1S,3R)-3-(((2S)-2-(5-(4′-(2-((2S)-1-((2R)-2-(diethylamino)-2-phenylacetyl)-2-pyrrolidinyl)-1H-imidazol-5-yl)-4-biphenylyl)-1H-imidazol-2-yl)-1-pyrrolidinyl)carbonyl)cyclopentyl)carbamate]
  EC50: 0.001 to 0.999 nM

## CCN(CC)[C@@H](C(=O)N1CCC[C@H]1c1ncc(-c2ccc(-c3ccc(-c4cnc([C@@H]5CCCN5C(=O)C[C@@H](Cc5ccccc5)NC(=O)OC)[nH]4)cc3)cc2)[nH]1)c1ccccc1 [cj-58, methyl ((1R)-1-benzyl-3-((2S)-2-(5-(4′-(2-((2S)-1-((2R)-2-(diethylamino)-2-phenylacetyl)-2-pyrrolidinyl)-1H-imidazol-5-yl)-4-biphenylyl)-1H-imidazol-2-yl)-1-pyrrolidinyl)-3-oxopropyl)carbamate]
  EC50: 0.001 to 0.999 nM

## CCN(CC)[C@@H](C(=O)N1CCC[C@H]1c1ncc(-c2ccc(-c3ccc(-c4cnc([C@@H]5CCCN5C(=O)[C@H]5CC[C@@H](NC(=O)OC)C5)[nH]4)cc3)cc2)[nH]1)c1ccccc1 [cj-60, methyl ((1R,3S)-3-(((2S)-2-(5-(4′-(2-((2S)-1-((2R)-2-(diethylamino)-2-phenylacetyl)-2-pyrrolidinyl)-1H-imidazol-5-yl)-4-biphenylyl)-1H-imidazol-2-yl)-1-pyrrolidinyl)carbonyl)cyclopentyl)carbamate]
  EC50: 0.001 to 0.999 nM

## COC(=O)N[C@H]1CC[C@@H](C(=O)N2CCC[C@H]2c2ncc(-c3ccc(-c4ccc(-c5cnc([C@@H]6CCCN6C(=O)[C@@H](NC(=O)OC)C(C)C)[nH]5)cc4)cc3)[nH]2)C1 [cj-61, methyl ((1S)-1-(((2S)-2-(5-(4′-(2-((2S)-1-(((1R,3S)-3-((methoxycarbonyl)amino)cyclopentyl)carbonyl)-2-pyrrolidinyl)-1H-imidazol-5-yl)-4-biphenylyl)-1H-imidazol-2-yl)-1-pyrrolidinyl)carbonyl)-2-methylpropyl)carbamate]
  EC50: 0.001 to 0.999 nM

## COC(=O)N[C@@H]1CC[C@H](C(=O)N2CCC[C@H]2c2ncc(-c3ccc(-c4ccc(-c5cnc([C@@H]6CCCN6C(=O)[C@@H](NC(=O)OC)C(C)C)[nH]5)cc4)cc3)[nH]2)C1 [cj-62, methyl ((1S)-1-(((2S)-2-(5-(4′-(2-((2S)-1-(((1S,3R)-3-((methoxycarbonyl)amino)cyclopentyl)carbonyl)-2-pyrrolidinyl)-1H-imidazol-5-yl)-4-biphenylyl)-1H-imidazol-2-yl)-1-pyrrolidinyl)carbonyl)-2-methylpropyl)carbamate]
  EC50: 0.001 to 0.999 nM

## COC(=O)N[C@H]1CC[C@@H](C(=O)N2CCC[C@H]2c2ncc(-c3ccc(-c4ccc(-c5cnc([C@@H]6CCCN6C(=O)[C@H](NC(=O)OC)c6ccccc6)[nH]5)cc4)cc3)[nH]2)C1 [cj-63, methyl ((1R)-2-((2S)-2-(5-(4′-(2-((2S)-1-(((1R,3S)-3-((methoxycarbonyl)amino)cyclopentyl)carbonyl)-2-pyrrolidinyl)-1H-imidazol-5-yl)-4-biphenylyl)-1H-imidazol-2-yl)-1-pyrrolidinyl)-2-oxo-1-phenylethyl)carbamate]
  EC50: 0.001 to 0.999 nM

## COC(=O)N[C@@H]1CC[C@H](C(=O)N2CCC[C@H]2c2ncc(-c3ccc(-c4ccc(-c5cnc([C@@H]6CCCN6C(=O)[C@H](NC(=O)OC)c6ccccc6)[nH]5)cc4)cc3)[nH]2)C1 [cj-64, methyl ((1R)-2-((2S)-2-(5-(4′-(2-((2S)-1-(((1S,3R)-3-((methoxycarbonyl)amino)cyclopentyl)carbonyl)-2-pyrrolidinyl)-1H-imidazol-5-yl)-4-biphenylyl)-1H-imidazol-2-yl)-1-pyrrolidinyl)-2-oxo-1-phenylethyl)carbamate]
  EC50: 0.001 to 0.999 nM

## COC(=O)N[C@@H](Cc1ccccn1)C(=O)N1CCC[C@H]1c1ncc(-c2ccc(-c3ccc(-c4cnc([C@@H]5CCCN5C(=O)[C@@H](NC(=O)OC)C(C)C)[nH]4)cc3)cc2)[nH]1 [cj-65, methyl ((1S)-1-(((2S)-2-(5-(4′-(2-((2S)-1-((2S)-2-((methoxycarbonyl)amino)-3-(2-pyridinyl)propanoyl)-2-pyrrolidinyl)-1H-imidazol-5-yl)-4-biphenylyl)-1H-imidazol-2-yl)-1-pyrrolidinyl)carbonyl)-2-methylpropyl)carbamate]
  EC50: 0.001 to 0.999 nM
